The record followed here is US20140193436A1, “EXTRACELLULAR TARGETED DRUG CONJUGATES” (priority 2011, published 2014).

Molecules are shown by their SMILES. Where two headings read alike, the source gives them in different places.

In assay [1] the test system is HT-29 human colon cancer xenograft. As to the kind of experiment: HT-29 human colon cancer xenograft model. It is filed as in vivo, Hsd:Athymic Nude-Foxn1nu mice. The settings on record: 15 mg/kg qd×5 (positive control); compared to vehicle. As to the method:
Briefly, to establish a human colorectal adenocarcinoma disease model, tumors from HT-29 xenograft bearing mice were minced and 8 mm^3 fragments were transplanted s.c. by trocar needle into the left flank of Hsd:Athymic Nude-Foxn1^nu mice (Harlan, Indianapolis, Ind.). Therapy with EDC2.2 was then initiated when the tumor volume in groups of 7 animals averaged ˜100 mm^3. Treatment using vehicle control and either 1 or 5 mg/kg EDC2.2 was administered i.v. using the schedule of one injection every 3 days with 4 total injected doses (q3d×4). 15 mg/kg paclitaxel dosed at qd×5 served as a positive control treatment group. Tumor volumes were measured for each group using calibrated vernier calipers and plotted against first day of tumor implant for 69 days post-implant and 41 days post-initial dose. […] Therefore, EDCs that employ targeting moieties to CD147 conjugated to agents that act on the Na,K-ATPase should be generally useful in treating colon cancers.
(In general: Xenograft models place foreign cells or tissue in a host animal.)

The test system of the next assay is H69 SCLC cells. As to the kind of experiment: In vitro cytotoxicity assessment (CellTiter-Glo cell viability), H69. The assay is classed as cell-based, human. An excerpt: (§1) Cells and culture conditions: Cell lines H460, HT29, A549, PANC-1, MB231, FaDu, H69 and H929 were obtained from the American Type Culture Collection (ATCC), Manassas, Va. The malignant melanoma cell line LOX IMVI was obtained from the DCTD Tumor Repository, National Cancer Institute, Frederick, Md., The cell lines were maintained in the recommended media formulations and subcultured every 3 to 4 days. To activate expression of certain targets to which the drug moiety bind and/or to form Na,K-ATPase complexes with certain proteins, cells can be cultured in recommended media plus additives such as phorbol esters, various growth factors and cytokines such as VEGF, fibroblast growth factors, human growth factors, interleukins, and tumor necrosis factors. In addition, cells can be cocultured with other cells like human fibroblasts. Additionally, microtiter plates can be coated with various proteins like fibrinogen.
(§2) Cells were incubated in the presence of test compound for 72 hr prior to cell viability testing.
On the technique in general: In ATP-based viability assays light output follows the ATP content of the culture.

The next assay deals with H929 Myeloma cells. As to the kind of experiment: In vitro cytotoxicity assessment (CellTiter-Glo cell viability), H929. The assay is classed as cell-based, human.
Text: as §1, §2

The next assay deals with PANC1 Pancreas cells. As to the kind of experiment: In vitro cytotoxicity assessment (CellTiter-Glo cell viability), PANC1. It is filed as cell-based, human.
Text: as §1, §2

The test system of assay [2] is LOX Melanoma cells (LOX IMVI). Put plainly: In vitro cytotoxicity assessment (CellTiter-Glo cell viability), LOX. The assay is classed as cell-based, human.
Text: as §1, §2

A further assay relates to A549 NSCLC cells. Put plainly: In vitro cytotoxicity assessment (CellTiter-Glo cell viability), A549. The assay is classed as cell-based, human.
Text: as §1, §2

The test system of another assay is FaDu Head/neck cells. As to the kind of experiment: In vitro cytotoxicity assessment (CellTiter-Glo cell viability), FaDu. It is filed as cell-based, human.
Text: as §1, §2

In a further assay the test system is H460 LCLC cells. As to the kind of experiment: In vitro cytotoxicity assessment (CellTiter-Glo cell viability), H460. The assay is classed as cell-based, human.
Text: as §1, §2

A further assay concerns HT29 Colon cells. As to the kind of experiment: In vitro cytotoxicity assessment (CellTiter-Glo cell viability), HT29. The assay is classed as cell-based, human.
Text: as §1, §2

Another assay deals with MB231 Breast cells. As to the kind of experiment: In vitro cytotoxicity assessment (CellTiter-Glo cell viability), MB231. It is filed as cell-based, human.
Text: as §1, §2

For the compound `CC(=O)O[C@H]1C(=O)[C@@]2(C)[C@H]([C@H](OC(=O)c3ccccc3)[C@]3(O)C[C@H](OC(=O)[C@H](O)[C@@H](NC(=O)c4ccccc4)c4ccccc4)C(C)=C1C3(C)C)[C@]1(OC(C)=O)CO[C@@H]1C[C@@H]2O` [Paclitaxel, paclitaxel], the “growth inhibition of the tumor” value in assay [1] amounted to 85%.
One may read the EC50 as the concentration at which the effect is half-maximal. Turning to `C[C@]12CC[C@H](O[C@H]3OC[C@H](NC(=O)CCOCCOCCOCCOCCOCCOCCOCCOCCOCCOCCOCCOCCOCCOCCOCCOCCOCCOCCOCCOCCOCCOCCOCCOCCNC(=O)CCN4C(=O)C=CC4=O)[C@H](O)C3O)C=C1CCC1C2CC[C@]2(C)[C@@H](c3ccc(=O)oc3)CC[C@]12O` (stereo partly shown) [CEN010-105], the EC50 in the assay on H69 SCLC cells (Homo sapiens, 72 h) worked out at 26.6 nM; in the assay on H929 Myeloma cells (Homo sapiens, NCI-H929, 72 h) it was 89.6 nM; in the assay on PANC1 Pancreas cells (Homo sapiens, PANC-1, 72 h), 27.1 nM; in [2] (Homo sapiens, LOX, 72 h), 71 nM; in the assay with A549 NSCLC cells (Homo sapiens, A549, 72 h), 31.3 nM; in the assay with FaDu Head/neck cells (Homo sapiens, FaDu, 72 h) it was 75.5 nM. Moreover, the EC50 with H460 LCLC cells (Homo sapiens, NCI-H460, 72 h) was 76.9 nM; in the assay on HT29 Colon cells (Homo sapiens, HT-29, 72 h) it was 60 nM; in the assay on MB231 Breast cells (Homo sapiens, 72 h) it was 109 nM.
As for `C[C@]12CC[C@H](OC3OC[C@H](N)[C@@H](O)[C@@H]3O)C=C1CCC1C2CC[C@]2(C)[C@@H](c3ccc(=O)oc3)CC[C@]12O` (stereo partly shown) [CEN09-106], the EC50 came to 1 nM with H69 SCLC cells (H69 SCLC, 72 hr with test compound, read-out: EC50); 3.1 nM in the assay with H929 Myeloma cells (H929 Myeloma, 72 hr with test compound, read-out: EC50); 1.1 nM in the assay with PANC1 Pancreas cells (PANC1 Pancreas, 72 hr with test compound, read-out: EC50); 2.5 nM in [2] (LOX Melanoma, 72 hr with test compound, read-out: EC50); 0.66 nM with A549 NSCLC cells (A549 NSCLC, 72 hr with test compound, read-out: EC50); 3.1 nM with FaDu Head/neck cells (FaDu Head/neck, 72 hr with test compound, read-out: EC50). For the same compound, the concentration for a half-maximal effect (EC50) was found to be 1.4 nM in the assay with H460 LCLC cells (H460 LCLC, 72 hr with test compound, read-out: EC50); 2.9 nM with HT29 Colon cells (HT29 Colon, 72 hr with test compound, read-out: EC50); 3.3 nM in the assay on MB231 Breast cells (MB231 Breast, 72 hr with test compound, read-out: EC50).
